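GI50 is the concentration that inhibits growth by half. TGI marks complete inhibition of growth.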
How the values were obtained:
Assay in all cases: growth of human tumour cells (NCI), 384-well format
MALME-3M melanoma = system: MALME-3M melanoma
MCF7 breast = system: MCF7 breast
RPMI-8226 leukemia = system: RPMI-8226 leukemia
SK-MEL-28 melanoma = system: SK-MEL-28 melanoma
SW-620 colon = system: SW-620 colon
K-562 leukemia = system: K-562 leukemia
OVCAR-5 ovarian = system: OVCAR-5 ovarian
786-0 renal = system: 786-0 renal
EKVX NSCLC = system: EKVX NSCLC
CCRF-CEM leukemia = system: CCRF-CEM leukemia
UACC-62 melanoma = system: UACC-62 melanoma
SK-MEL-2 melanoma = system: SK-MEL-2 melanoma
SF-539 CNS = system: SF-539 CNS

CC(O)[C@H](NC(=O)N[C@@H](CC(N)=O)c1nc(N2CCNCC2)no1)C(=O)O (stereo partly specified) was tested, and the GI50 (MALME-3M melanoma) was > 100 µM, the TGI (MALME-3M melanoma) was > 100 µM and the GI50 (MCF7 breast) was > 100 µM. For the same compound, the TGI (MCF7 breast) was > 100 µM, the GI50 (RPMI-8226 leukemia) was > 100 µM and the TGI (RPMI-8226 leukemia) was > 100 µM. The GI50 (SK-MEL-28 melanoma) was > 100 µM, the TGI (SK-MEL-28 melanoma) was > 100 µM and the GI50 (SW-620 colon) was > 100 µM. For the same compound, the TGI (SW-620 colon) was > 100 µM, the GI50 (K-562 leukemia) was > 100 µM and the TGI (K-562 leukemia) was > 100 µM. For the same compound, the GI50 (OVCAR-5 ovarian) was > 100 µM, the TGI (OVCAR-5 ovarian) was > 100 µM and the GI50 ([…]-0 renal) was > 100 µM. For the same compound, the TGI (786-0 renal) was > 100 µM, the GI50 (EKVX NSCLC) was > 100 µM and the TGI (EKVX NSCLC) was > 100 µM. The GI50 (CCRF-CEM leukemia) was > 100 µM, the TGI (CCRF-CEM leukemia) was > 100 µM and the GI50 (UACC-62 melanoma) was > 100 µM. For the same compound, the TGI (UACC-62 melanoma) was > 100 µM, the GI50 (SK-MEL-2 melanoma) was > 100 µM and the TGI (SK-MEL-2 melanoma) was > 100 µM. For the same compound, the GI50 (SF-539 CNS) was > 100 µM and the TGI (SF-539 CNS) was > 100 µM.

From PubChem BioAssay (NCI)
